Data from patent US20220280543A1, “DDX17 AND NLRC4 TARGETING FOR INFLAMMATORY DISEASES” (University of Virginia Patent Foundation, priority 2019, published 2022).
Entries after “also recorded” stand apart in the source; their conditions may differ.

Tests used:
caspase-1 = test: Alu RNA induced caspase-1 activation (p20 in supernatant) in BMDM pre-treated with kinase inhibitors; type: cell-based, mouse; settings: BMDM pre-treated 1 hour with inhibitor at 2 μM or 5 μM, then Alu RNA transfection (100 pmol)
Procedure: (§1) FIG. 2. SINE RNA induced NLRC4 phosphorylation (site S533) through protein Kinase C Delta. BMDM cell pre-treated with the LRRK2 Kinase inhibitor gsk2578215a (GSK; 5-(2-Fluoro-4-pyridinyl)-2-(phenylmethoxy)-N-3-pyridinyl-benzamide; CAS Number 1285515-21-0; Sigma-Aldrich, St. Louis, Mo., United States of America) or the PKC delta inhibitor Rottlerin (CAS Number 82-08-6; Sigma-Aldrich) at 2 μM or 5 μM, and treated with Alu RNA (SEQ ID NO: 86) transfection or transfection reagent alone (Mock). NLRC4 phosphorylation (P-NLRC4) and supernatant caspase-1 activation were detected by SDS-PAGE. […] PKC delta inhibitor, Rottlerin blocked Alu RNA-induced NLRC4 phosphorylation and caspase-1 activation. The p-NLRC4 and caspase-1 (p20) bands were indicated with black arrows.
(§2) Previous studies have shown that NLRC4 inflammasome activation in response to Salmonella exposure requires two steps for its activation, phosphorylation on Ser533 residue of NLRC4 and NAIP mediated oligomerization of NLRC4. […] Moreover, treatment with SINE RNAs induced caspase-1 p20 cleavage, indicative of inflammasome activation (FIG. 2). For the subsequent experiments in this study, we used Alu RNA (SEQ ID NO: 86) as the stimulus to activate the NLRC4 inflammasome. To date, two kinases are reported to phosphorylate NLRC4 at S533: protein kinase C delta (PKCδ) and leucine rich repeat-containing kinase-2 (LRRK2). […]

[1] = system: NLRC4 phosphorylation (site S533); test: Alu RNA induced NLRC4 phosphorylation (S533) in BMDM pre-treated with kinase inhibitors, immunoblot; type: cell-based, mouse; settings: BMDM pre-treated 1 hour with inhibitor at 2 μM or 5 μM, then Alu RNA transfection (100 pmol)
Procedure: as §1, §2

[2] = target: T1, human NLR family pyrin domain containing 3 (NLRP3) (human, UniProt Q96P20 1-1036); test: proximity ligation assay (PLA) in human RPE cells transfected with biotinylated Alu RNA
T1 construct: Endogenous protein of human RPE cells
T1 sequence (Q96P20 whole entry, the tested form may be a part): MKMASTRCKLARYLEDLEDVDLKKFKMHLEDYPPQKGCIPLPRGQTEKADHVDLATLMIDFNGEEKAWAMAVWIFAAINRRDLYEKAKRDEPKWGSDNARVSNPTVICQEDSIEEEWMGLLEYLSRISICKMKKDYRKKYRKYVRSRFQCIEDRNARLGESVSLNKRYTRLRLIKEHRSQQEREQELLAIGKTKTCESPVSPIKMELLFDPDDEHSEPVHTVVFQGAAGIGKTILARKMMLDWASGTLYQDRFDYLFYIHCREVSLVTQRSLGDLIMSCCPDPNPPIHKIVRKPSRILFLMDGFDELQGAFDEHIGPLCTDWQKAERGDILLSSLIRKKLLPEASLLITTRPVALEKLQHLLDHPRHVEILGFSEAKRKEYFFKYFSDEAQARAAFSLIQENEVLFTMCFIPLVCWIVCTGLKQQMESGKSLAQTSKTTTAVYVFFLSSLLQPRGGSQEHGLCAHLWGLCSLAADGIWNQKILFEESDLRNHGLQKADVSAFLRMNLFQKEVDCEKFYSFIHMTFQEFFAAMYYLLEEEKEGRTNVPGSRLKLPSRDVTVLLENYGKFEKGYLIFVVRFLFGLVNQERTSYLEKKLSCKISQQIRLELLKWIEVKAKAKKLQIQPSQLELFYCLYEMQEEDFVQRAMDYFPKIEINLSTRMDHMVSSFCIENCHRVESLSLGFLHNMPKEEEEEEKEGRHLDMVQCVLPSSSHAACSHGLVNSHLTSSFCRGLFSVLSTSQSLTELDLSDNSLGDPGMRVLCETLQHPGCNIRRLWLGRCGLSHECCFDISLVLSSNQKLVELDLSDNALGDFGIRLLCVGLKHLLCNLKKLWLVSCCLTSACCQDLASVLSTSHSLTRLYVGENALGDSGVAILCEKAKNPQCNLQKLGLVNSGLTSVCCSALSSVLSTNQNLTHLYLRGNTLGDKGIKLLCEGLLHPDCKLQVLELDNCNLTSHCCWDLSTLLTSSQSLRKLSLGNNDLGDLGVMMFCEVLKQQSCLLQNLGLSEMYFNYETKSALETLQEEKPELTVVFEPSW
Procedure: FIG. 37. Alu RNA (SEQ ID NO: 86) induces the assembly of NLRC4 and NLRP3 complex. Human RPE cells were transfected with biotinylated Alu RNA (SEQ ID NO: 86 at 100 pmol) by LIPOFECTAMINE™ 3000 brand transfection reagent (Lipo; ThermoFisher Scientific). The assembly of NLRC4 and NLRP3 complex was evaluated by Proximity Ligation Assay (PLA). […] The signal of NLRC4-NLRP3 complexes is indicated by the white arrow.
Human RPE cells were treated with biotinylated Alu RNA (SEQ ID NO: 86 at 100 pmol). The assembly of NLRC4 and NLRP3 complex was evaluated by Proximity Ligation Assay (PLA).

[3] = target: the molecule itself; test: homo-oligomerization, Tris-glycine native PAGE, Alu RNA-transfected human RPE cells
Description: FIGS. 24A and 24B. Alu RNA (SEQ ID NO: 86) induced NLRC4 activation in human RPE cells. To test whether Alu RNA (SEQ ID NO: 86) induces NLRC4 activation in human RPE, we transfected human RPE with Alu RNA (SEQ ID NO: 86 at 100 pmol). FIG. 24A. Immunofluorescence staining on NLRC4 show Alu RNA (SEQ ID NO: 86) induced cytosolic NLRC4 punctate in hRPE cells. The NLRC4 aggregates induced by Alu RNA (SEQ ID NO: 86) are indicated by white arrows. FIG. 24B. Alu RNA (SEQ ID NO: 86) induced NLRC4 (p-NLRC4) phosphorylation and oligomerization. Loading control show by Actin. NLRC4 oligomers were detected by Tris-glycine native PAGE. […] The band of NLRC4 oligomers is indicated by black arrow.

binding result [2] | Molecule | Alu RNA induced caspase-1 activation (caspase-1) | Alu RNA induced phosphorylation of NLRC4 [1] | binding result [3]
 | CC(=O)c1c(O)c(C)c(O)c(Cc2c(O)c3c(c(C(=O)/C=C/c4ccccc4)c2O)OC(C)(C)C=C3)c1O [Rottlerin] | blocked; also recorded: inhibited | blocked; also recorded: inhibited | 
binds | human NLR family CARD domain containing 4 (NLRC4) (receptor, Endogenous protein of human RPE cells and of human donor eyes) MNFIKDNSRALIQRMGMTVIKQITDDLFVWNVLNREEVNIICCEKVEQDAARGIIHMILKKGSESCNLFLKSLKEWNYPLFQDLNGQSLFHQTSEGDLDDLAQDLKDLYHTPSFLNFYPLGEDIDIIFNLKSTFTEPVLWRKDQHHHRVEQLTLNGLLQALQSPCIIEGESGKGKSTLLQRIAMLWGSGKCKALTKFKFVFFLRLSRAQGGLFETLCDQLLDIPGTIRKQTFMAMLLKLRQRVLFLLDGYNEFKPQNCPEIEALIKENHRFKNMVIVTTTTECLRHIRQFGALTAEVGDMTEDSAQALIREVLIKELAEGLLLQIQKSRCLRNLMKTPLFVVITCAIQMGESEFHSHTQTTLFHTFYDLLIQKNKHKHKGVAASDFIRSLDHCGDLALEGVFSHKFDFELQDVSSVNEDVLLTTGLLCKYTAQRFKPKYKFFHKSFQEYTAGRRLSSLLTSHEPEEVTKGNGYLQKMVSISDITSTYSSLLRYTCGSSVEATRAVMKHLAAVYQHGCLLGLSIAKRPLWRQESLQSVKNTTEQEILKAININSFVECGIHLYQESTSKSALSQEFEAFFQGKSLYINSGNIPDYLFDFFEHLPNCASALDFIKLDFYGGAMASWEKAAEDTGGIHMEEAPETYIPSRAVSLFFNWKQEFRTLEVTLRDFSKLNKQDIRYLGKIFSSATSLRLQIKRCAGVAGSLSLVLSTCKNIYSLMVEASPLTIEDERHITSVTNLKTLSIHDLQNQRLPGGLTDSLGNLKNLTKLIMDNIKMNEEDAIKLAEGLKNLKKMCLFHLTHLSDIGEGMDYIVKSLSSEPCDLEEIQLVSCCLSANAVKILAQNLHNLVKLSILDLSENYLEKDGNEALHELIDRMNVLEQLTALMLPWGCDVQGSLSSLLKHLEEVPQLVKLGLKNWRLTDTEIRILGAFFGKNPLKNFQQLNLAGNRVSSDGWLAFMGVFENLKQLVFFDFSTKEFLPDPALVRKLSQVLSKLTFLQEARLVGWQFDDDDLSVITGAFKLVTA |  |  | binds
